In patent US12605753B2, “Enhanced microbial production of biosurfactants and other products, and uses thereof” (LOCUS SOLUTIONS IPCO, LLC, priority 2015, dated 2026):

System: Bacillus subtilis B1, B2, and B3 strains
Assay: PCR with primers for unique signature sequences
Details: amplicon generated by the forward/reverse primer pair (LSBS n-F / n-R) specific for Bacillus subtilis B1, B2, B3 strains
Description: Table 7 below depicts thirteen (13) pairs of primers specifically designed for the Bacillus subtilis B1, B2, and B3 strains. All 13 primers generate unique PCR amplicons for identifying the Bacillus subtilis strains of the present invention. The subsequent PCR products are unique and are not found performing a search (i.e., BLAST search) in a database such as the GenBank database.

| Substance | PCR Product Size (bp) |
| --- | --- |
| LSBS 1-F (DNA GGACACAGATCATTGGGAGTT; listed as DNA, chemistry not given here) | 769 bp |
| LSBS 13-F (DNA CCCTCTAGCTCTTTCTTCTTCAC; listed as DNA, chemistry not given here) | 496 bp |
| LSBS 7-F (DNA CCTCTGCCCAAGACATATCAA; listed as DNA, chemistry not given here) | 913 bp |
| LSBS 11-F (DNA ATGCGGCTAGACATGGATATG; listed as DNA, chemistry not given here) | 687 bp |
| LSBS 12-F (DNA TGTCCCTCTTTAGGTGCTATTG; listed as DNA, chemistry not given here) | 954 bp |
| LSBS 3-F (DNA CGGAGTTTGTTAGCGAAGTTATTG; listed as DNA, chemistry not given here) | 543 bp |
| LSBS 2-F (DNA TCAATTCCTCTGCACCACTTAT; listed as DNA, chemistry not given here) | 906 bp |
| LSBS 5-F (DNA CCATTAGGGTCAACATGGTCTAA; listed as DNA, chemistry not given here) | 273 bp |
| LSBS 4-F (DNA CATGCGGAACTCCAATTTCTTC; listed as DNA, chemistry not given here) | 263 bp |
| LSBS 9-F (DNA GCCATCAGGCTGTTTGTAGA; listed as DNA, chemistry not given here) | 679 bp |
| LSBS 8-F (DNA GCTGTAGACGACTGGGTACTA; listed as DNA, chemistry not given here) | 750 bp |
| LSBS 10-F (DNA CAGATGAAGTTGGTGGTGTTTC; listed as DNA, chemistry not given here) | 743 bp |
| LSBS 6-F (DNA CACCGAACTCTGCTGAGAAA; listed as DNA, chemistry not given here) | 523 bp |
